A short description of this series: Sodium perborate tetrahydrate solubility tests in fresh water. In kind it is physicochemical. As to conditions: density 8.33 pounds per gallon, 75° F., with mixing; for Amount Dissolved (solubility of sodium perborate tetrahydrate in water): 10% by weight of water was a pass/fail target, not the maximum solubility. The protocol:
Sodium perborate tetrahydrate solubility tests in fresh water having a density of 8.33 pounds per gallon were conducted. […] The sodium borate tetrahydrate-complex or ester forming compound mixtures all contained a molar ratio of sodium perborate tetrahydrate to the complex or ester forming compound of 1:2, and the mixtures were added to the water in amounts whereby the sodium perborate tetrahydrate was present in an amount of 10% by weight of the water.

The structures appear in SMILES notation.

For the compound `O.O.O.O.[Na+].[O-]B1OO1` [Sodium Perborate Tetrahydrate], the “Amount Dissolved (solubility of sodium perborate tetrahydrate in water)” value is on record as 2.5% by weight of water. Besides, the “Amount Dissolved (solubility of sodium perborate tetrahydrate in water)” value (listed as sodium perborate tetrahydrate) is reported as 2.5 % by weight of water. Besides, the “Time Required” value (time to dissolve the stated amount) is reported as less than 15 min.

These data come from patent publication US6918445B2, “Methods and compositions for treating subterranean zones using environmentally safe polymer breakers” (Halliburton Energy Services, Inc., priority 2003, dated 2005).
